We go through one compound from article PMC10485003, “Antibiotic hyper-resistance in a class I aminoacyl-tRNA synthetase with altered active site signature motif” (Nature Communications, 2023).

Assay in all cases: Activation step kinetics of reciprocal-residue mutants, mupirocin inhibition
Holding throughout (type): biochemical, Priestia (Bacillus) megaterium
Settings in all cases: peer review response Table 1, read-out: Ki (Mup)

For one assay, the target named is T1, P53A/G60N/R61K PmIleRS2 (Priestia megaterium, UniProt A0A0B6AVD3, G60N/P53A/R61K).
T1 sequence (A0A0B6AVD3 1-1032 P53A/G60N/R61K): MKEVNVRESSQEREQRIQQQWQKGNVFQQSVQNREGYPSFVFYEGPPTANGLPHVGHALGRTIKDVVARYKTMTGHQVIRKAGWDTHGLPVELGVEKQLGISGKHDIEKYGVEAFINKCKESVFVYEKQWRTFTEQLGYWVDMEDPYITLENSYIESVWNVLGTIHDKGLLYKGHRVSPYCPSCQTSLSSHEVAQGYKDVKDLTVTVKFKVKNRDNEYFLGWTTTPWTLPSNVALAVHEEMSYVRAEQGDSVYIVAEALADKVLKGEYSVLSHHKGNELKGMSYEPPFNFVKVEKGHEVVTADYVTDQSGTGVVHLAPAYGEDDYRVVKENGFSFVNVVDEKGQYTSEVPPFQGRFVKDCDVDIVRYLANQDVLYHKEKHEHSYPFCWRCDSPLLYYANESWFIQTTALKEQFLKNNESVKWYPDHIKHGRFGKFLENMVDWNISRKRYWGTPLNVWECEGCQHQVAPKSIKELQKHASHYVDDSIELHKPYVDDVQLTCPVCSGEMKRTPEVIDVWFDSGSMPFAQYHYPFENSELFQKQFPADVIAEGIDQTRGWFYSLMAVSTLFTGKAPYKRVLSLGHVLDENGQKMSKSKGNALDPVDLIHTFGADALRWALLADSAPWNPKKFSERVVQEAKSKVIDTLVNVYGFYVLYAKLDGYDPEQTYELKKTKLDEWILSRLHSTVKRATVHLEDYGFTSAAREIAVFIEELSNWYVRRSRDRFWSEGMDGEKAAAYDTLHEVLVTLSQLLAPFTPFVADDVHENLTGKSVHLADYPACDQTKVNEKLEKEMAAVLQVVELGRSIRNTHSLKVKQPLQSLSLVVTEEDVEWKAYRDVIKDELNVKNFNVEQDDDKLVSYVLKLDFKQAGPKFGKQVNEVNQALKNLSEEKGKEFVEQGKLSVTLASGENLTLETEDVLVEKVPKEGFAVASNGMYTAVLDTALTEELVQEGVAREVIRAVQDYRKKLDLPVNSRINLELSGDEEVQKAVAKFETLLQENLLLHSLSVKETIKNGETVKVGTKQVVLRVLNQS
The method, then: (§1) L-Ile and ATP concentrations ranged from 1/10 KM to 10 KM values. When measuring the KI towards one of the substrates, the other was held in saturation (concentrations at least 10 KM). The aliquots of the reaction mixture (1–2.5 μl) were quenched in 2 volumes of 500 mM NaOAc pH = 4.5, 0.1% SDS, and formed ^32P-ATP was separated from the remaining ^32P-PPi by thin-layer chromatography on Polygram CEL 300 PEI UV254 TLC plates (Macherey-Nagel, cat: 801063) using 750 mM KH2PO4 pH=3.5, 4 M urea buffer. Visualization and quantification of the signals was performed using a Typhoon Phosphoimager 5 (General Electric) and accompanying ImageQuant™ TL software (SV: 10.2). The kinetic constants were determined using a global fit option of the competitive inhibition model of GraphPad Prism 6 software (SV: 6.01). All experiments were performed in triplicates. The kcat was determined by dividing the maximal velocity, VM, with the used enzyme concentration. […]
(§2) same catalytic mechanisms. Further, mutation of the natural ALHH motif of DrIleRS2 to ALGH led to the loss of activity, showing that IleRS2 enzymes also require the 1st/3rd His for the activity (i.e. implying the same reaction mechanisms).
(§3) To address this point, we changed the sentence “This allows accommodation of the 3rd His in mut-GVHH-PmIleRS2 in a productive manner without a clash with the adenine […]
(§4) This allows accommodation of the 3 rd His in mut-GVHH-PmIleRS2 without displacement of the adenine moiety. This way, the 3rd His can take over the role of the 1 st His in the canonical reaction mechanism (Fig. 4B). (Page 9, lines 216-218)
(§5) We agree with the reviewer that the active sites of IleRS1 and IleRS2 differ in structural features allowing rearrangement of the α1-helix solely in IleRS2. We were eager t o understand the basis of it and mutated several conserved positions, within and around helix 1, in IleRS1 by introducing the analogous residues found in IleRS2. The same was done for IleRS2. […]
(§6) Table 1. Catalytic activity of the IleRS1 and IleRS2 mutants with exchanged reciprocal residues measured in the activation step […]

Assay [1] addresses T2, P53A/G60N/R61K/W130Q/Y126S PmIleRS2 (Priestia megaterium, UniProt A0A0B6AVD3, G60N/P53A/R61K/W130Q/Y126S).
T2 sequence (A0A0B6AVD3 1-1032 P53A/G60N/R61K/Y126S/W130Q): T1 sequence (A0A0B6AVD3 1-1032 P53A/G60N/R61K)
The method, then: as §1, §2, §3, §4, §5, §6

The next assay concerns the target T3, W130Q/Y126S PmIleRS2 (Priestia megaterium, UniProt A0A0B6AVD3, W130Q/Y126S).
T3 sequence (A0A0B6AVD3 1-1032 Y126S/W130Q): T1 sequence (A0A0B6AVD3 1-1032 P53A/G60N/R61K)
The method, then:
as §1, §2, §3, §4, §5, §6

SMILES strings stand for the structures.

`C/C(=C\C(=O)OCCCCCCCCC(=O)O)C[C@@H]1OC[C@H](C[C@@H]2O[C@H]2[C@@H](C)[C@H](C)O)[C@@H](O)[C@H]1O` [mupirocin]: the Ki (as a rule, the dissociation constant of the complex between target and ligand, obtained from inhibition or displacement) on P53A/G60N/R61K PmIleRS2 is 3.1 ± 0.2 µM; in assay [1] it was 21.1 ± 0.7 µM; on W130Q/Y126S PmIleRS2, 3.2 ± 0.1 µM.
